According to patent EP1285919A1, “C10 Carbonate substituted taxanes as antitumor agents” (Florida State University Research Foundation, Inc., priority 2001, dated 2003):

Legend:
blood cell populations = assay: Effect of oral treatment on blood cell populations, body weight and tumor weight in the MX-1 study; type: in vivo, nu/nu mice; settings: Group 3: 73 mg/kg single oral bolus
Description: Antitumor compounds were administered orally in a study to investigate whether such formulations are efficacious against the MX-1 human breast carcinoma xenograft. The compounds were prepared in the following vehicle: 90% saline, 5% Cremophor, and 5% ethanol. Antitumor compound 1771 was formulated as described for Solution 1 in Example 6. Antitumor compound 1781 was formulated as described for Solution 2 in Example 6.
Female nu/nu mice (11-12 weeks of age; implanted subcutaneously with 1 mm^3 MX-1 human breast carcinoma fragments in the flank) were sorted into one control (n=10) and two treatment (n=6) groups (group mean tumor size of 47-49 mg). Treatment groups are detailed in Table 14.
In addition to survival and tumor regression responses, the effect of treatment on blood cell populations was assessed. The major effect of these antitumor compounds on blood cell populations was a marked reduction in the neutrophil cell number. Monocyte depletion correlated fairly well with neutrophil reduction for each antitumor compound. […] There was a correlation between antitumor activity and reduced neutrophil count. In general, toxicity (as determined by neutrophil depletion) and weight loss correlated with efficacy. Importantly, the toxicities observed with the very efficacious antitumor compounds were manageable and reversible; neutrophil count and body weight rebounded from their nadirs in just a few days. Table 15 summarized the weight reduction, neutrophil and monocyte measurements on Day 4, with tumor weight reduction calculated at Day 18: Table 15

[1] = system: MX-1 Human Breast Carcinoma Xenograft; assay: In vivo evaluation of oral administration against MX-1 breast carcinoma xenograft
Description: In Vivo Evaluation of the Oral Administration of Antitumor Compounds Against the MX-1 Human Breast Carcinoma Xenograft
The compounds were prepared in the following vehicle: 90% saline, 5% Cremophor, and 5% ethanol.

[2] = system: NCI-H1299 (H1299) carcinoma
Description: In Vivo Evaluation of Antitumor Compounds Against Human Lung Carcinoma Xenografts
The compounds were prepared in the manner as described for Solution 2 of Example 10. Taxol (paclitaxel, Bristol Meyers Squibb), used as a control, was obtained as the marketed pharmaceutical drug.
Taxol itself was given as a split i.v. dose of 36 mg/kg, with the two 18 mg/kg doses separated by one hour. Vehicle control animals were dosed twice intravenously with half the total volume being given separated by one hour. The study was terminated on Day 60.
The results are summarized in Table 1 and include mean days of survival (MDS), number of toxic deaths, number of survivors, number of complete or partial responses, and number with stable disease. The mean days of survival is the number of days after which a SKMES neoplasm reached a size of 1.5 g and the animal was euthanized. A complete response is obtained if the tumor is not palpable at the end of the study. A partial response is obtained if the tumor shrinks to a size smaller than its size on Day 1 of the study.
A tumor scoring system was designed to provide a more quantitative ranking of efficacy (therapeutic potential) among the antitumor agents evaluated against the different human solid tumor xenografts. Each mouse in a study was given a score of from 1 to 10 at the end of the study. The scores can be summarized as follows:
The individual score for each mouse was averaged into a mean score for each treatment group. […]
The treatment protocol for the H1299 test was identical to the SK-MES test protocol. […]

[3] = Group 3: 73 mg/kg single oral bolus Day 1, 6 mice, study to Day 63

SMILES | Monocytes (K/µL) (blood cell populations; Day 4) | Neutrophils (K/µL) (blood cell populations; Day 4) | % Reduction (Neutrophils) (blood cell populations; Day 4, vs vehicle) [%] | Weight (blood cell populations; MX-1 tumor weight, Day 18) [mg] | % Reduction (Weight) (blood cell populations; tumor weight reduction calculated at Day 18, vs vehicle) [%] | Mean Day of Survival (n) ([1]; Group 3: 73 mg/kg single oral bolus Day 1, 6 mice, n=5, 1.5 g endpoint, study to Day 63) | Maximum Weight Loss (Day) ([1]; Group 3: 73 mg/kg single oral bolus Day 1, 6 mice, on Day 5) | Complete Response [1, 3] | Partial Response [1, 3] | Stable Disease [1, 3] | Toxic Deaths [1, 3] | survival versus vehicle controls ([1]; single oral bolus Day 1, for 1771 the other two mice of the group) | survival extension compared to vehicle-treated animals ([2]; Taxol 36 mg/kg i.v., five animals) [%] | MDS (n) ([2]; mean days of survival, i.v. split dose qd x 1, Taxol 36 mg/kg, 1755 49 mg/kg, six mice per group) | Complete Response ([2]; number of mice of six) | Stable Disease ([2]; number of mice of six) | Survivors ([2]; number of mice of six) | Toxic Deaths ([2]; number of mice of six, i.v. split dose qd x 1, Taxol 36 mg/kg, 1755 49 mg/kg) | Mean Score ([2]; tumor score 1 to 10 per mouse, averaged per group)
CCOC(=O)O[C@H]1C(=O)[C@@]2(C)[C@H]([C@H](OC(=O)c3ccccc3)[C@]3(O)C[C@H](OC(=O)[C@H](O)[C@H](C=C(C)C)NC(=O)OC(C)(C)C)C(C)=C1C3(C)C)[C@]1(OC(C)=O)CO[C@@H]1C[C@@H]2O [Compound 1781] | 0.101 | 0.117 | 87.2 | 275.3 | 68.3 | 33.3 ± 2.9 (5) | -9.4% (5) | 0 | 0 | 1 | 0 | significant survival extensions | – | – | – | – | – | – | –
CC(=O)O[C@H]1C(=O)[C@@]2(C)[C@H]([C@H](OC(=O)c3ccccc3)[C@]3(O)C[C@H](OC(=O)[C@H](O)[C@@H](NC(=O)c4ccccc4)c4ccccc4)C(C)=C1C3(C)C)[C@]1(OC(C)=O)CO[C@@H]1C[C@@H]2O [Taxol] | – | – | – | – | – | – | – | – | – | – | – | – | 10 | 27.0 ± 4.6 (5) days | 0 | 0 | 1 | 0 | 2.7 ± 1.3
